From patent US20220340633A1 (Adepthera LLC, priority 2016, published 2022)
Non-standard residues stand in square brackets, D forms with d. Residues, ends and D or L forms follow the SMILES beside them. *: point of attachment. Palmitoyl = CCCCCCCCCCCCCCCC(=O)*; AEEA = NCCOCCOCC(=O)O

Legend:
CLR/RAMP3 receptor = CLR/RAMP3 receptor (Homo sapiens, UniProt O60896+Q16602); test: cell-based
Method: (§1) Using a receptor activation assay, the dose-dependent stimulatory response of peptide agonists of the present invention on a CLR/RAMP1 receptor, a CLR/RAMP2, or a CLR/RAMP3 receptor complex was determined. A cell line carrying the recombinant CLR/RAMP1, CLR/RAMP2, or a CLR/RAMP3 receptor was employed in the assay. Peptide agonist activities were tested, in duplicate, at 10 different concentrations, starting with 1.0 μM and serially diluted 3-fold, in DMSO. […] The CLR/RAMP1 cAMP, CLR/RAMP2 arrestin assays, and CLR/RAMP3 cAMP (DiscoveRx, Fremont, Calif.) were used.
(§2) For the analysis of antagonistic activity, the synthetic analogs were pre-incubated with the cells before adding the reference ligand at its EC80.

CLR/RAMP1 receptor = CLR/RAMP1 receptor (Homo sapiens, UniProt O60894+Q16602); details: CLR/RAMP1 versus CLR/RAMP2
Sequence of CLR/RAMP1 receptor (Q16602 23-461): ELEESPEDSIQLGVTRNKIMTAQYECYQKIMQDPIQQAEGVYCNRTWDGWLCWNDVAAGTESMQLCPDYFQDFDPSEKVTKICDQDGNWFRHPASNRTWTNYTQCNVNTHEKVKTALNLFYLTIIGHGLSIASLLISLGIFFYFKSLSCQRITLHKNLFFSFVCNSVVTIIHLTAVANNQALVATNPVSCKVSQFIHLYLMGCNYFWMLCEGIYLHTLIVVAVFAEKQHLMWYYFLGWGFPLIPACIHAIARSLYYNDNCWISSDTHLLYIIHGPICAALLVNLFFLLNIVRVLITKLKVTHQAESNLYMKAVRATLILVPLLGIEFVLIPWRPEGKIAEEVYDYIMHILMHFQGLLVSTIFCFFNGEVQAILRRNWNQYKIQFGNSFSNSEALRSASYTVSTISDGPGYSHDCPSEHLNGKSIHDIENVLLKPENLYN
Sequence of CLR/RAMP1 receptor (O60894 27-148): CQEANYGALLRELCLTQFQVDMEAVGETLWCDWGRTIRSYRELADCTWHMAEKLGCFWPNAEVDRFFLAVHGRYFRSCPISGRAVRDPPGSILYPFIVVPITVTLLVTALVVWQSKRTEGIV
Method: as §1, §2

Sequence of CLR/RAMP3 receptor (Q16602 23-461): as the sequence (Q16602 23-461) above
Sequence of CLR/RAMP3 receptor (O60896 24-148): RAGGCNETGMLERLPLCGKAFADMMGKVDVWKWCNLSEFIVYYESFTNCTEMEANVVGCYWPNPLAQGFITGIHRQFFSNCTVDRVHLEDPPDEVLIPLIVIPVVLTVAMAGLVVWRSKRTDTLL

| Structure (SMILES) | IC50 (CLR/RAMP3 receptor) | receptor specificity of antagonist (CLR/RAMP1 receptor) |
| --- | --- | --- |
| CCCCCCCCCCCCCCCC(=O)NCCCC[C@H](NC(=O)COCCOCCN)C(=O)N[C@H](C(=O)N[C@@H](CCC(N)=O)C(=O)N[C@@H](CCCCN)C(=O)N[C@@H](CC(C)C)C(=O)N[C@@H](C)C(=O)N[C@@H](Cc1c[nH]cn1)C(=O)N[C@@H](CCC(N)=O)C(=O)N[C@H](C(=O)N[C@@H](Cc1ccc(O)cc1)C(=O)N[C@@H](CCC(N)=O)C(=O)N[C@@H](Cc1ccccc1)C(=O)N[C@H](C(=O)N[C@@H](CC(=O)O)C(=O)N[C@@H](CCCCN)C(=O)N[C@@H](CC(=O)O)C(=O)N[C@@H](CO)C(=O)N[C@@H](C)C(=O)N1CCC[C@H]1C(=O)N[C@H](C(=O)N[C@@H](CC(=O)O)C(=O)N1CCC[C@H]1C(=O)N[C@@H](CO)C(=O)N[C@@H](CO)C(=O)N1CCC[C@H]1C(=O)N[C@@H](Cc1c[nH]cn1)C(=O)N[C@@H](CO)C(=O)N[C@@H](Cc1ccc(O)cc1)C(N)=O)C(C)C)[C@@H](C)O)[C@@H](C)CC)C(C)C [SEQ ID NO: 112] (H-[AEEA]K(Palmitoyl)VQKLAHQIYQFTDKDSAPVDPSSPHSY-NH2) | 0.8 to 9.2 nM | – |
| CCCCCCCCCCCCCCCC(=O)N[C@@H](CCCCN)C(=O)N[C@H](C(=O)N[C@@H](CCC(N)=O)C(=O)N[C@@H](CCCCN)C(=O)N[C@@H](CC(C)C)C(=O)N[C@@H](C)C(=O)N[C@@H](Cc1c[nH]cn1)C(=O)N[C@@H](CCC(N)=O)C(=O)N[C@H](C(=O)N[C@@H](CO)C(=O)N[C@@H](C)C(=O)N1CCC[C@H]1C(=O)N[C@H](C(=O)N[C@@H](CC(=O)O)C(=O)N1CCC[C@H]1C(=O)N[C@@H](CO)C(=O)N[C@@H](CO)C(=O)N1CCC[C@H]1C(=O)N[C@@H](Cc1c[nH]cn1)C(=O)N[C@@H](CO)C(=O)N[C@@H](Cc1ccc(O)cc1)C(N)=O)C(C)C)[C@@H](C)CC)C(C)C [SEQ ID NO: 123] | 0.8 to 9.2 nM | – |
| CCCCCCCCCCCCCCCC(=O)NCCCC[C@H](NC(=O)COCCOCCN)C(=O)N[C@H](C(=O)N[C@@H](CCC(N)=O)C(=O)N[C@@H](CCCCN)C(=O)N[C@@H](CC(C)C)C(=O)N[C@@H](C)C(=O)N[C@@H](Cc1c[nH]cn1)C(=O)N[C@@H](CCC(N)=O)C(=O)N[C@H](C(=O)N[C@@H](Cc1ccc(O)cc1)C(=O)N[C@@H](CO)C(=O)N[C@@H](C)C(=O)N1CCC[C@H]1C(=O)N[C@H](C(=O)N[C@@H](CC(=O)O)C(=O)N1CCC[C@H]1C(=O)N[C@@H](CO)C(=O)N[C@@H](CO)C(=O)N1CCC[C@H]1C(=O)N[C@@H](Cc1c[nH]cn1)C(=O)N[C@@H](CO)C(=O)N[C@@H](Cc1ccc(O)cc1)C(N)=O)C(C)C)[C@@H](C)CC)C(C)C [SEQ ID NO: 114] | 0.8 to 9.2 nM | CLR/RAMP1-specific |
| CCCCCCCCCCCCCCCC(=O)N[C@@H](CCCCN)C(=O)N[C@H](C(=O)N[C@@H](CCC(N)=O)C(=O)N[C@@H](CCCCN)C(=O)N[C@@H](CC(C)C)C(=O)N[C@@H](C)C(=O)N[C@@H](Cc1c[nH]cn1)C(=O)N[C@@H](CCC(N)=O)C(=O)N[C@H](C(=O)N[C@@H](Cc1ccc(O)cc1)C(=O)N[C@@H](CCC(N)=O)C(=O)N[C@@H](Cc1ccccc1)C(=O)N[C@H](C(=O)N[C@@H](CC(=O)O)C(=O)N[C@@H](CCCCN)C(=O)N[C@@H](CC(=O)O)C(=O)N[C@H](C(=O)N[C@@H](C)C(=O)N1CCC[C@H]1C(=O)N[C@@H](CCCNC(=N)N)C(=O)N[C@@H](CO)C(=O)N[C@@H](CCCCN)C(=O)N[C@H](C(=O)N[C@@H](CO)C(=O)N1CCC[C@H]1C(=O)N[C@@H](CCC(N)=O)C(=O)NCC(=O)N[C@@H](Cc1ccc(O)cc1)C(N)=O)[C@@H](C)CC)C(C)C)[C@@H](C)O)[C@@H](C)CC)C(C)C [SEQ ID NO: 119] | 0.8 to 9.2 nM | CLR/RAMP2-specific |
